Laboratory results from patent publication US20260069534A1, “ORAL DELIVERY OF ACTIVE COMPOUNDS FOR TREATING GLYCOGEN STORAGE DISEASES” (LYOTROPIC DELIVERY SYSTEMS LTD., priority 2022, published 2026).

Key:
[1] = Tissue penetration / distribution in APBD model mice (LC-MS/MS); format: in vivo
Description: FIGS. 8A-8B show tissue penetration test results in APBD model mice for Compound GHF-201 in non-formulated form (FIG. 8A) and formulated in LDS-C formulation (FIG. 8B). For pharmacokinetic analysis, 100 μl serum as well as brain, kidney, hind limb quad muscle, heart, liver, and spleen tissues were collected, homogenized, and extracted with acetonitrile following established guidelines (Kapetanovic et al, 2006). Calibration curves were made with 0, 1, 10, 100, and 1,000 ng/ml GHF-201 in 1 mg/ml solutions of 4-tert-butyl-2-(4H-1,2,4-triazol-4-yl) phenol (ChemBridge) as internal standard (IS). Tissue samples were then dissolved in 1 mg/ml IS solutions and spiked with 0-1,000 ng/ml GHF-201 to generate standard curves from which tissue levels of GHF201 were determined. Samples were analyzed by the LC-MS/MS Sciex Triple Quad™ 5500 mass spectrometer.
Gbeys/ys mice injected subcutaneously with 250 mg/kg GHF-201 were sacrificed 30, 60, 90, and 210 min post injection, and the indicated tissues were removed, as well as 100 μL of serum drawn. […] Results obtained from n=3 mice at each time point.
The distribution and kinetic parameters of GHF-201 was assessed in different tissues.

[2] = Pharmacokinetics, 3-day oral dose escalation study in APBD patients; format: in vivo, human; details: for Cmax: human, plasma, oral, 340 mg, per os in formulation LDS-C, 170, 255, 340 mg on days 1, 2, 3
Description: (§1) Compound GHF-201 was administered to APBD modeling mice as a 5% DMSO solution, IV injected twice a week at a dose of 250 mg/kg, equivalent to a daily dose of 70 mg/kg. Daily injection was avoided due to the relatively long duration of treatment (6 months), which might have led to excessive scarring. Following positive results in the murine model, compound GHF-201 was administered to two APBD patients as a part of a 3-day oral dose escalation study, during which clinical safety and pharmacokinetic profiles were determined.
Blood was drawn during three consecutive days according to the following regime—pre-administration and 0.5 h, 1 h. 1.5 h, 2 h, and 4 h post-administration. Compound GHF-201 was administered as formulation LDS-C. 7.15% Compound GHF-201. Active ingredient doses were 170 mg on the first day, 255 mg on the second day, and 340 mg on the third day.
Following blood drawing, plasma was separated by centrifugation (up to 1 h from drawing) at 2000 g for 10 min. at 4° C. Compound GHF-201 levels in plasma (supernatant) samples were determined by LC-Mass Spectrometry (LC-MS/MS) using Sciex Triple Quad™ 5500 mass spectrometer. 100 μl of plasma were collected and extracted in 500 μl acetonitrile solution (acetonitrile/water 1:1 v/v). Calibration curves were made with 0.1, 10, 100, and 1000 ng/ml compound GHF-201 in 1 mg/ml solutions of 4-tert-butyl-2-(4H-1,2,4-triazol-4-yl) phenol (ChemBridge) as internal standard (IS). The samples were dissolved in 1 mg/ml IS solutions and spiked with 0-1000 ng/ml of compound GHF-201 to generate standard curves from which plasma levels of compound GHF-201 were determined.

[3] = Pharmacokinetic profile in APBD modeling mice, IV 250 mg/kg; details: in vivo
Description: FIGS. 9A-9C are pharmacokinetic profiles of Compound GHF-201 administered per os in formulation LDS-C to APBD patient 1 (FIG. 9A) and IV at 250 mg/kg to n=3 APBD modeling mice (FIG. 9B). Active ingredient doses in days 1, 2, and 3 were 170 mg, 255 mg, and 340 mg, respectively. Encircled in A, values blown up in FIG. 9C.
as §1
Following the FDA human equivalent dose calculation, mouse dose can be converted to human dose by dividing by 12. […] Divided by 12, 4,700 ng/mL yields 392 ng/mL. […] Therefore, it was assumed that a human equivalent, or higher, dose in patients is at least as effective as the equivalent dose in mice.

mice = test: 14-day safety study in mice; format: in vivo; details: 14-day study
Description: Pharmacokinetically, subcutaneously injected in mice, compound GHF-201 had high dwell time and persistence (>3 h) in the liver, intermediate levels and persistence in brain and heart (1 h) and negligible distribution to the muscle. […] The ameliorative effect on extension reflex is especially important since the patient correlate is pyramidal tetraparesis or upper motor neuron signs which are one of the main neurological deficiencies in APBD patients.

[4] = subcutaneously injected in mice

For `COCCN(Cc1sccc1C)C(=O)c1cc(C)[nH]c(=O)c1` [Compound GHF-201], the “bioavailability increase in all tissues” value ([1]; orally administered in formulation vs subcutaneous injections of GHF-201 in solution, APBD model mice) was “at least three-fold”, the “distribution to the muscle” value [1, 4] was “negligible” and the “dwell time and persistence in the liver” value [1, 4] was > 3 h. The “persistence in brain and heart” value [1, 4] was 1 h, the Cmax ([2]; patient 1) was 894 ng/mL and the Cmax ([2]; patient 2) was 883 ng/mL. The “Areas Under the Curve (AUC)” value ([2]; patients 1 and 2, sum of trapezoids) was “correlated with the level of compound GHF-201 administered”, the “pre-administration levels in the plasma” value ([2]; patients, three consecutive days) was “increased every consecutive day” and the Human-equivalent Cmax (mouse Cmax divided by 12) ([3]; intravenous, 250 mg/kg, FDA human equivalent dose calculation) was 392 ng/mL. The Cmax ([3]; mouse, APBD modeling mice, IV 250 mg/kg) was 4700 ng/mL and the safety (mice) was “safe”.
